# Assay results as given in patent US5164295A, “Method for identifying amyloid protein-extracellular matrix protein affinity altering compounds” (The Upjohn Company, priority 1991, dated 1992).
# Columns and labels:
# [1] = test system: HSPG binding to fibronectin; test: Effect of test compounds on intact HSPG binding to immobilized fibronectin (ELISA); set-up: species or system bovine; conditions: for HSPG binding, % of control: fibronectin
# Procedure: (§1) The assay comprised immobilizing AAP695 /s which was then exposed to free HSPG in the absence or presence of test compounds. Other aspects of the assay included exposing free HSPG to either immobilized AAP751 /s, or AAP770 /s, each in the absence or presence of test compounds. The assay was also performed with fibronectin as the immobilized protein in order to provide a positive control. In each case, a series of concentrations of HSPG and test compounds was used. Additionally, to determine whether or not the carbohydrate moiety of HSPG was involved in the binding to immobilized components, the carbohydrate moiety of HSPG was removed and assays were performed using the carbohydrate-free HSPG core protein. The test compounds used in experiments described here include heparin, dextran sulfate, chondroitin sulfate, dermatan sulfate, fibronectin, gelatin, bovine serum albumin (BSA), Ca^++ (CaCl2), Mg^++ (MgCl2), Mn^++ (MnCl2), Co^++ (Co(NO3)2), and Zn^++ (ZnCl2).
# Fibronectin (from bovine plasma), heparin (grade II from porcine intestinal mucosa, average molecular weight=[…]), heparan sulfate, chondroitin sulfate, dextran sulfate, BSA, and alkaline phosphatase substrate were obtained from Sigma, St. Louis, Mo. Alkaline phosphatase conjugated goat anti-rabbit IgG was obtained from Boehringer-Manneheim, and heparitinase from ICN Biochemicals.
# (§2) The assay used in studying the interaction between HSPG and protein ligands was an ELISA technique. Briefly, polystyrene micro-titer plates (Linbro, Flow Lab Inc.) were coated with a 100 μl solution, containing 1 μg/ml of the protein of interest (one of the three forms of AAP or fibronectin) in 20 mM NaHCO3 buffer pH 9.6. After incubation overnight at 4° C., the plates were rinsed with 0.15M NaCl, 20 mM Tris-Cl pH 7.5 (TBS). The plates were then incubated with 150 μl of 1% BSA in TBS for 2 hours at 37° C. to block the residual hydrophobic surface on the wells. After rinsing with TBS containing 0.05% (w/v) Tween 20 (TBS-Tween), 100 μl of various concentrations of HSPG in TBS-Tween were added. The plates were left overnight at 4° C., to permit maximum binding of HSPG to the coated proteins. The plates were then washed extensively and incubated for 2 hours at 37° C., with 100 μl of anti-HSPG diluted in TBS-Tween containing 0.1% BSA. The plates were washed again and incubated for another 2 hours with 100 μl of goat anti-rabbit-IgG conjugated with alkaline phosphatase (1:2000 dilution) in TBS-Tween containing BSA as above. Finally, after further washing, the bound antibodies were detected by adding an alkaline phosphatase substrate solution (100 μl) containing 2 mg/ml p-nitrophenyl phosphate, 0.1 mM ZnCl2, 1 mM MgCl2 and 100 mM glycine pH 10. The plates were left at room temperature for 15-120 minutes depending on the protein tested. The enzyme reaction was stopped by addition of 50 μl of 2M NaOH. The absorbance of the released p-nitrophenol was measured at 405 nm with a Titertek Multiscan/MCC 340 (Flow Lab. Ltd.). The amounts of HSPG bound were determined by the net OD405 after substracting the OD from the blank wells in which the HSPG incubation step was omitted. When the actual amounts of HSPG bound were to be calculated, a set of standards (0.05-50 ng/well) of HSPG in NaHCO3 buffer were pre-coated into wells on the same plates as the test proteins. The incubations proceeded as described above omitting the incubation of the HSPG solution with the HSPG standard coated wells. The actual amounts of HSPG bound to the test proteins were calculated from the OD405 standard curve produced by the HSPG standards using a Titersoft II E.J.A. software program (Flow Lab. Ltd.).
# (§3) Heparin and dextran sulfate, respectively, were each used as test compounds to determine their effect on the HSPG binding to AAP forms and fibronectin. Various concentrations of heparin or dextran sulfate were added together with a constant amount of HSPG to wells coated with AAPs for fibronectin.
# [2] = molecular target: T1, HSPG binding to AAP751 /s (Homo sapiens, UniProt P05067); test: Effect of test compounds on intact HSPG binding to immobilized AAP751 /s (ELISA); conditions: for HSPG binding, % of control: AAP751
# T1 construct: maintained the entire extracellular portion of the AAP; made in house; host or cells: insect cells (recombinant baculovirus)
# Procedure: as §1, §2, §3
# [3] = molecular target: HSPG core protein binding to AAP695 /s; test: Effect of heparin on HSPG core protein binding to immobilized AAP695 /s (ELISA); conditions: heparin 400 μg/ml
# Procedure: The assay used in studying the interaction between HSPG and protein ligands was an ELISA technique. Briefly, polystyrene micro-titer plates (Linbro, Flow Lab Inc.) were coated with a 100 μl solution, containing 1 μg/ml of the protein of interest (one of the three forms of AAP or fibronectin) in 20 mM NaHCO3 buffer pH 9.6. After incubation overnight at 4° C., the plates were rinsed with 0.15M NaCl, 20 mM Tris-Cl pH 7.5 (TBS). The plates were then incubated with 150 μl of 1% BSA in TBS for 2 hours at 37° C. to block the residual hydrophobic surface on the wells. After rinsing with TBS containing 0.05% (w/v) Tween 20 (TBS-Tween), 100 μl of various concentrations of HSPG in TBS-Tween were added. […] Finally, after further washing, the bound antibodies were detected by adding an alkaline phosphatase substrate solution (100 μl) containing 2 mg/ml p-nitrophenyl phosphate, 0.1 mM ZnCl2, 1 mM MgCl2 and 100 mM glycine pH 10. […] The absorbance of the released p-nitrophenol was measured at 405 nm with a Titertek Multiscan/MCC 340 (Flow Lab. Ltd.). The amounts of HSPG bound were determined by the net OD405 after substracting the OD from the blank wells in which the HSPG incubation step was omitted. When the actual amounts of HSPG bound were to be calculated, a set of standards (0.05-50 ng/well) of HSPG in NaHCO3 buffer were pre-coated into wells on the same plates as the test proteins. […]
# [4] = molecular target: T2, HSPG binding to AAP695 /s (Homo sapiens, UniProt P05067); test: Effect of test compounds on intact HSPG binding to immobilized AAP695 /s (ELISA); conditions: for HSPG binding, % of control: AAP695
# T2 construct: maintained the entire extracellular portion of the AAP; made in house; host or cells: insect cells (recombinant baculovirus)
# Procedure: as §1, §2, §3
# [5] = test compound 500 μg/ml (Table II)
# Chain of HSPG binding to fibronectin (P07589 with tags, fused parts or gaps DEL1267-1357/DEL1723-1812 limits assumed): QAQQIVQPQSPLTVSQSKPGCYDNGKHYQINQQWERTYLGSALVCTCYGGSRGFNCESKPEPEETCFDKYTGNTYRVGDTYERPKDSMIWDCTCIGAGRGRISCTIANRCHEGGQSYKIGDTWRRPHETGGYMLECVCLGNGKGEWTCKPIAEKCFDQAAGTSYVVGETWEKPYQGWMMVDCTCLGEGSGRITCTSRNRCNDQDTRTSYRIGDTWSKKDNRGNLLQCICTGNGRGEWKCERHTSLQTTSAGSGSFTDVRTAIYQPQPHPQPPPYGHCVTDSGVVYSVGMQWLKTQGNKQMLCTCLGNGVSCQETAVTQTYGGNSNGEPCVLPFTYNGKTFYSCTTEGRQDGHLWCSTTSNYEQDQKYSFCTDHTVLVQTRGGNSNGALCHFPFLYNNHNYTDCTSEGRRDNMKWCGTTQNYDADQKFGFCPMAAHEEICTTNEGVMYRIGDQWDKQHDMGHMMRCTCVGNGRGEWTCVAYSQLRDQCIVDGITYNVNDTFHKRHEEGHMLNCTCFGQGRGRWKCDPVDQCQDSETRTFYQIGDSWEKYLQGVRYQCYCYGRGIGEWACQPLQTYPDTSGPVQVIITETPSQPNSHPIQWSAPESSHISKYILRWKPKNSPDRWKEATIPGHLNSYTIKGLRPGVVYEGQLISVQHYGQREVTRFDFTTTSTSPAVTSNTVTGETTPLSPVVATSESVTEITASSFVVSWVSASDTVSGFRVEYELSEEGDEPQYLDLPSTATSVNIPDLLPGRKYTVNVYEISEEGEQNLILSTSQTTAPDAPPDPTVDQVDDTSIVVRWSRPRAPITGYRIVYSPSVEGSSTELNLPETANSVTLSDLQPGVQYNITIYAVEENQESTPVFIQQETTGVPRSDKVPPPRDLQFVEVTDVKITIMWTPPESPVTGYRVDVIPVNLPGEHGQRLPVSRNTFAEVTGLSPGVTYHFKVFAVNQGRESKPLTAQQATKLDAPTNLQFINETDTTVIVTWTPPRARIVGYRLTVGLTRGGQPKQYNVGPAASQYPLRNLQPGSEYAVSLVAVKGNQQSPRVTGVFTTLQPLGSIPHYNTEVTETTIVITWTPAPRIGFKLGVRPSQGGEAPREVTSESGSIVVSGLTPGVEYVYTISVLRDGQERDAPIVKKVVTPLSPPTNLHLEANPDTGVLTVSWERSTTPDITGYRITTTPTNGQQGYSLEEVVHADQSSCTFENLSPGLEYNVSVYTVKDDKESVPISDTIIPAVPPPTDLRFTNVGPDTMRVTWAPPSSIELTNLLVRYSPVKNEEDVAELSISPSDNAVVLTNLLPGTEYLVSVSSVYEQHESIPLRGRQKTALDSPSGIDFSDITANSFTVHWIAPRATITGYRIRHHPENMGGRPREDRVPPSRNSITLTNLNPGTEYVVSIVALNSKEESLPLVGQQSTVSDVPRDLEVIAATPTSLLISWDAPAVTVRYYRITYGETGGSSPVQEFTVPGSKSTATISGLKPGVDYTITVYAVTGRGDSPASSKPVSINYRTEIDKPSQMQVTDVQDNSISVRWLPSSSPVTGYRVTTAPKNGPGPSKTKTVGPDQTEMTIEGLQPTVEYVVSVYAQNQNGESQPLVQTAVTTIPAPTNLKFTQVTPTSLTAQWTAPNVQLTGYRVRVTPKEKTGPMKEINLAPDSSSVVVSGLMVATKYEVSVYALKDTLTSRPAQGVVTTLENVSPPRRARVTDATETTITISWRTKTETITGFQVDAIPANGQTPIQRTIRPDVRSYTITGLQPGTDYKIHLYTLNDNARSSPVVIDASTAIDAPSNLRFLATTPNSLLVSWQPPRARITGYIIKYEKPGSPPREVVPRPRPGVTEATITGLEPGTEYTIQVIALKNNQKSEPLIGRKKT
substance,measurement,setting,value
heparin,mode of inhibition of HSPG binding to fibronectin,[1],noncompetitive
same,"Activity: binding of intact HSPG, percentage ± SD of control","[1]; Fibronectin, addition 500 μg/ml, HSPG 2 μg/ml",71.7 ± 4.9%
same,"HSPG binding, % of control",[1]; test compound 31.2 μg/ml,93%
same,"HSPG binding, % of control",[1]; test compound 62.5 μg/ml,91%
same,"HSPG binding, % of control",[1]; test compound 125 μg/ml,73%
same,"HSPG binding, % of control",[1]; test compound 250 μg/ml,85%
same,"HSPG binding, % of control",[1]; [5],79%
same,"HSPG binding, % of control",[1]; test compound 1000 μg/ml,79%
same,"HSPG binding, % of control",[1]; test compound 2000 μg/ml,77%
same,"HSPG binding, % of control",[1]; test compound 4000 μg/ml,74%
same,mode of inhibition of HSPG binding to AAP751 /s,[2],noncompetitive
same,"Activity: binding of intact HSPG, percentage ± SD of control","[2]; AAP751 /S, addition 500 μg/ml, HSPG 2 μg/ml",69 ± 12%
same,"HSPG binding, % of control",[2]; test compound 31.2 μg/ml,89%
same,"HSPG binding, % of control",[2]; test compound 62.5 μg/ml,75%
same,"HSPG binding, % of control",[2]; test compound 125 μg/ml,84%
same,"HSPG binding, % of control",[2]; test compound 250 μg/ml,82%
same,"HSPG binding, % of control",[2]; [5],54%
same,"HSPG binding, % of control",[2]; test compound 1000 μg/ml,60%
same,"HSPG binding, % of control",[2]; test compound 2000 μg/ml,53%
same,"HSPG binding, % of control",[2]; test compound 4000 μg/ml,58%
same,effect of heparin on Kd of HSPG when using AAP751 /s,"[2]; heparin 400 μg/ml, intact HSPG or core protein",No such effect
same,Ki,"[3]; calculated from Kdapp = Kdcon (1+[I]/Ki), AAP695 /s",~1600 nM
same,increase of Kd of HSPG core protein for AAP695 /s in presence of heparin,[3],approximately ten-fold
same,mode of inhibition of HSPG binding to AAP695 /s,[4],probably competitive
same,"Activity: binding of intact HSPG, percentage ± SD of control","[4]; AAP695 /S, addition 500 μg/ml, HSPG 2 μg/ml",10.2 ± 5.2%
same,"HSPG binding, % of control",[4]; test compound 31.2 μg/ml,29%
same,"HSPG binding, % of control",[4]; test compound 62.5 μg/ml,26%
same,"HSPG binding, % of control",[4]; test compound 125 μg/ml,16%
same,"HSPG binding, % of control",[4]; test compound 250 μg/ml,10%
same,"HSPG binding, % of control",[4]; [5],7%
same,"HSPG binding, % of control",[4]; test compound 1000 μg/ml,3%
same,"HSPG binding, % of control",[4]; test compound 2000 μg/ml,2%
same,"HSPG binding, % of control",[4]; test compound 4000 μg/ml,1%
same,Ki,"[4]; calculated from Kdapp = Kdcon (1+[I]/Ki), heparin 400 μg/ml, AAP695 /s",~5.5 µM
same,factor by which HSPG affinity for AAP-695/s is reduced,[4]; heparin 400 μg/ml,5-10
same,increase of Kd of intact HSPG for AAP695 /s in presence of heparin,[4]; heparin 400 μg/ml,approximately four-fold
same,inhibition of HSPG binding to AAP695 /s,[4]; test compound 62.5 μg/ml,75%
